The target of experiment [1] is T1, SRSF protein kinase 1 (Homo sapiens, UniProt Q96SB4). As to the kind of experiment: Selectivity interaction (Kinase panel (DSF assay)) EUB0001558a SRPK1.
Experiment [2] has as its target T2, Testis-specific serine/threonine-protein kinase 3 (Homo sapiens) (UniProt Q96PN8).
T2 sequence (whole entry): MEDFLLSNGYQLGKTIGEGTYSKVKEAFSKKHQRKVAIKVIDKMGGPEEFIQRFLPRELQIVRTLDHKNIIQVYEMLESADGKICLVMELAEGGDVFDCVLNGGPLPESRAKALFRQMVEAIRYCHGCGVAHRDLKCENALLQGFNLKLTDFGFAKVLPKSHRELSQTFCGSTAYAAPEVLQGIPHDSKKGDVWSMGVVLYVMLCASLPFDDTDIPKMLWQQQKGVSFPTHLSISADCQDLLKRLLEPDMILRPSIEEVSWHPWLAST
As to the kind of experiment: Selectivity interaction (KinomeScan (DiscoverX)) EUB0001049a TSSK3. Conditions: at 1 µM.

Experiment [3] concerns the target Fibroblast growth factor receptor 1 (Homo sapiens, UniProt P11362). As to the kind of experiment: Selectivity interaction (KinomeScan (DiscoverX)) EUB0000666a FGFR1. Particulars: at 10 µM.
Experiment [4] concerns the target T1, SRSF protein kinase 1. As to the kind of experiment: Selectivity interaction (KinomeScan (DiscoverX)) EUB0000607a SRPK1. Particulars: at 10 µM.
The target of experiment [5] is T3, MAP/microtubule affinity-regulating kinase 4 (Homo sapiens) (UniProt Q96L34).
T3 sequence (whole entry): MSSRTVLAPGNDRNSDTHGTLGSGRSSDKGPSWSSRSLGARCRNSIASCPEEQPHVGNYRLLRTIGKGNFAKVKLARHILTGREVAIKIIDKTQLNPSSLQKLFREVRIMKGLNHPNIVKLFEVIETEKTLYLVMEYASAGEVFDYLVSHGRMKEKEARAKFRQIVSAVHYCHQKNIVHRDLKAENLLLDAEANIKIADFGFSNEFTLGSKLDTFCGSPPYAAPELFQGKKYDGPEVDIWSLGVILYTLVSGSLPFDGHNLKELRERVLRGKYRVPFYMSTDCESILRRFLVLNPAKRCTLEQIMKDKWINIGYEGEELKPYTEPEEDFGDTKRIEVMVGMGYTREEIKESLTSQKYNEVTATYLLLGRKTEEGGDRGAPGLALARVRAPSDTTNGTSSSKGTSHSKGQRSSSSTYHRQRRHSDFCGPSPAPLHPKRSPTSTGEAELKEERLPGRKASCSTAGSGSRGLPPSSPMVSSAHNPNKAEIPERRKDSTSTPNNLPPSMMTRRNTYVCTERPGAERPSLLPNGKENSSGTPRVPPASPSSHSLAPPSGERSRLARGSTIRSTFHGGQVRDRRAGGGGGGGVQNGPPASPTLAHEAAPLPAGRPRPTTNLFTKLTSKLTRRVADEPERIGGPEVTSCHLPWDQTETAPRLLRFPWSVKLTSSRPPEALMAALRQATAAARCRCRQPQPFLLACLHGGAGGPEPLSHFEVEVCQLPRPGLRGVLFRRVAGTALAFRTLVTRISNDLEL
As to the kind of experiment: Selectivity interaction (KinomeScan (DiscoverX)) EUB0000607a MARK4. Conditions: at 10 µM.

Experiment [6] concerns the target T4, Mitogen-activated protein kinase kinase kinase 15 (Homo sapiens) (UniProt Q6ZN16).
T4 sequence (whole entry): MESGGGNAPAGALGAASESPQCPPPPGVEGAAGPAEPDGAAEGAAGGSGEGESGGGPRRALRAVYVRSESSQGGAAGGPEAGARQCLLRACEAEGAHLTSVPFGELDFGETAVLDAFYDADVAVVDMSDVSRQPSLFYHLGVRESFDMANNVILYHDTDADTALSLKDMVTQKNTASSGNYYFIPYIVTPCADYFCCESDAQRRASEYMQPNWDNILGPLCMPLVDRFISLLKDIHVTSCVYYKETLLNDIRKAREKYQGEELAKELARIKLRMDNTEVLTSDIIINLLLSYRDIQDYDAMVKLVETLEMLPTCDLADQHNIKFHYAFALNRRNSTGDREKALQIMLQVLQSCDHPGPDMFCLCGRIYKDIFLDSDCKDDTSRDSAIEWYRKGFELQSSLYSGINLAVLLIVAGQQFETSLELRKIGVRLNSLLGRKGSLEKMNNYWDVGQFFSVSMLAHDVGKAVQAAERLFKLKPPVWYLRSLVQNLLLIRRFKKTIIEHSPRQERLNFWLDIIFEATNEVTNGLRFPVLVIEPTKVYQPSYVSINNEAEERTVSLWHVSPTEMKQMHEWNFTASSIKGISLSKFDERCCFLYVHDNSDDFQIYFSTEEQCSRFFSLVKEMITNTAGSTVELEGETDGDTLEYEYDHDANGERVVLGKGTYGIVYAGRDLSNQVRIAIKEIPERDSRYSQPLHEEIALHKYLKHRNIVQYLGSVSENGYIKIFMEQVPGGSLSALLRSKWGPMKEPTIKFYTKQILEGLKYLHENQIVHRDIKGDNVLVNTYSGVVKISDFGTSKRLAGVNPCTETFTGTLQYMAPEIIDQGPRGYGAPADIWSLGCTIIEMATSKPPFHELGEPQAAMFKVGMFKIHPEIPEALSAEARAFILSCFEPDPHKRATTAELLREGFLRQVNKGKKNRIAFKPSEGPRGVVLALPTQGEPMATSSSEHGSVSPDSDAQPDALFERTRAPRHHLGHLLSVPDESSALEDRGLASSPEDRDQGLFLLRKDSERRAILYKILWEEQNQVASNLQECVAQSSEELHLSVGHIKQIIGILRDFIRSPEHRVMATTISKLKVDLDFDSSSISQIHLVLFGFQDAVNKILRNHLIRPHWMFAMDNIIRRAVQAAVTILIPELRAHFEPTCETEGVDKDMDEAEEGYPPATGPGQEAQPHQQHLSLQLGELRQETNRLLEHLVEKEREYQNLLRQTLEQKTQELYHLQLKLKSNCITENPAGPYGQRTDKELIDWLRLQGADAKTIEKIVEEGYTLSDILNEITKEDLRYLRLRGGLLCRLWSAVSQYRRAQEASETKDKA
As to the kind of experiment: Selectivity interaction (ActivX KiNativ screen (kinase selectivity in THP-1 cell lysates)) EUB0000639a MAP3K15. The experiment is classed as subcellular. Conditions: lysate.

In experiment [7] the target is Serine/threonine-protein kinase 32C (Homo sapiens) (UniProt Q86UX6). As to the kind of experiment: Selectivity interaction (ActivX KiNativ screen (kinase selectivity in THP-1 cell lysates)) EUB0000639a STK32C. The experiment is classed as subcellular. Particulars: lysate.
Sequence of Serine/threonine-protein kinase 32C (Homo sapiens) (Q86UX6 whole entry): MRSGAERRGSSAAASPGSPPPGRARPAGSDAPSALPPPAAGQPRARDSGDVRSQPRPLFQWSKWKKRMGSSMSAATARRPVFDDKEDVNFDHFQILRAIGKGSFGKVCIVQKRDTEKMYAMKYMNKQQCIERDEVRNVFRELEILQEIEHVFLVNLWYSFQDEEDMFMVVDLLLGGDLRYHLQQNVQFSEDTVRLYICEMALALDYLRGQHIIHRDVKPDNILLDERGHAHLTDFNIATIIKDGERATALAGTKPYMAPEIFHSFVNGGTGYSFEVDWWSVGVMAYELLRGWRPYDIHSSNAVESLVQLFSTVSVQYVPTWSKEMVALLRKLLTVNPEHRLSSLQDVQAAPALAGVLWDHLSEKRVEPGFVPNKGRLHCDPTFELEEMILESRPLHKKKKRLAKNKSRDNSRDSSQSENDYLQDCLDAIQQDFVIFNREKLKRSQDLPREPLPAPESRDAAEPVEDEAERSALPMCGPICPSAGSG
Experiment [8] has as its target Mitogen-activated protein kinase 14 (Homo sapiens, UniProt Q16539). As to the kind of experiment: Selectivity interaction (Kinase panel (33PanQinase(R) Activity Assay)) EUB0000877a MAPK14.
The target of experiment [9] is Serine/threonine-protein kinase Nek7 (Homo sapiens) (UniProt Q8TDX7). As to the kind of experiment: Selectivity interaction (ActivX KiNativ screen (ex vivo kinase selectivity in human PBMCs)) EUB0001619a NEK7. In kind it is cell-based. Conditions: PBMC, at 1 µM.
Sequence of Serine/threonine-protein kinase Nek7 (Homo sapiens) (Q8TDX7 whole entry, looked up): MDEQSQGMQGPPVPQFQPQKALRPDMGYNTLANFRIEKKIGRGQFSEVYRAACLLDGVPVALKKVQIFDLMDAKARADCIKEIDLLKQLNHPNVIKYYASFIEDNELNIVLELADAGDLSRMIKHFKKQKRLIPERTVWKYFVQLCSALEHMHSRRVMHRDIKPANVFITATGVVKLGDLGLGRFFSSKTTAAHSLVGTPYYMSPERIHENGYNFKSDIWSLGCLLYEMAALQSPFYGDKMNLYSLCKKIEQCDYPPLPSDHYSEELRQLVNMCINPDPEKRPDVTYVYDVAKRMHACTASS

The text below walks through data of ChEMBL document CHEMBL5465560, “Selectivity Literature for EUbOPEN Chemogenomic Library” (2024).

Usually IC50 stands for the concentration that inhibits the measured activity by half. The low end stands for greater potency in that assay, the high end for weaker potency in that assay.

T1 sequence (Q96SB4 whole entry): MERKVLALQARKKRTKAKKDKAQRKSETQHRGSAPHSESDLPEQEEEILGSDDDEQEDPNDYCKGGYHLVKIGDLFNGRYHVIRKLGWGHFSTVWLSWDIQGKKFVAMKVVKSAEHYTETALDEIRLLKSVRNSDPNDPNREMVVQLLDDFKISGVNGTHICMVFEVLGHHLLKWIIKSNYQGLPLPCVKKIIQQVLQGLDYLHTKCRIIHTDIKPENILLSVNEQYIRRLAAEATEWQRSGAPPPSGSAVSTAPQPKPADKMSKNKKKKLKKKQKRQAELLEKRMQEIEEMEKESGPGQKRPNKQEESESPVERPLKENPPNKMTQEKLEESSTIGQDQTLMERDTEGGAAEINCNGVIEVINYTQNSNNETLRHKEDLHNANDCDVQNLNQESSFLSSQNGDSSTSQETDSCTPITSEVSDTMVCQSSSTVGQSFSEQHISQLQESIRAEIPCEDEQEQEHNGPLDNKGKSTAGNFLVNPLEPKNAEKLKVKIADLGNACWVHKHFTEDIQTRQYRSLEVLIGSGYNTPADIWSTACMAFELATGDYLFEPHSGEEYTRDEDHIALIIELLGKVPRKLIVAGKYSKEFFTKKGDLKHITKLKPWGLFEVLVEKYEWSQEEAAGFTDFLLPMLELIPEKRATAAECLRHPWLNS
Sequence of Mitogen-activated protein kinase 14 (Q16539 whole entry): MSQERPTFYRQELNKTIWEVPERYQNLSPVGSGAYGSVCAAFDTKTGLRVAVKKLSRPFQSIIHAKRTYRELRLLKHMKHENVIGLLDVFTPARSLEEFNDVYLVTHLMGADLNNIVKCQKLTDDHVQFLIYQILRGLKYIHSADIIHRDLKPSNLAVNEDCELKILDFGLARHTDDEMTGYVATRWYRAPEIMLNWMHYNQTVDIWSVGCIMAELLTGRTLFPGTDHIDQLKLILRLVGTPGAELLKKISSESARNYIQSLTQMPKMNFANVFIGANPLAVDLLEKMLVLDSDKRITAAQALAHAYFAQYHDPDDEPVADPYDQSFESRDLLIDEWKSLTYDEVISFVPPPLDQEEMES
Sequence of Fibroblast growth factor receptor 1 (P11362 22-822 limits assumed): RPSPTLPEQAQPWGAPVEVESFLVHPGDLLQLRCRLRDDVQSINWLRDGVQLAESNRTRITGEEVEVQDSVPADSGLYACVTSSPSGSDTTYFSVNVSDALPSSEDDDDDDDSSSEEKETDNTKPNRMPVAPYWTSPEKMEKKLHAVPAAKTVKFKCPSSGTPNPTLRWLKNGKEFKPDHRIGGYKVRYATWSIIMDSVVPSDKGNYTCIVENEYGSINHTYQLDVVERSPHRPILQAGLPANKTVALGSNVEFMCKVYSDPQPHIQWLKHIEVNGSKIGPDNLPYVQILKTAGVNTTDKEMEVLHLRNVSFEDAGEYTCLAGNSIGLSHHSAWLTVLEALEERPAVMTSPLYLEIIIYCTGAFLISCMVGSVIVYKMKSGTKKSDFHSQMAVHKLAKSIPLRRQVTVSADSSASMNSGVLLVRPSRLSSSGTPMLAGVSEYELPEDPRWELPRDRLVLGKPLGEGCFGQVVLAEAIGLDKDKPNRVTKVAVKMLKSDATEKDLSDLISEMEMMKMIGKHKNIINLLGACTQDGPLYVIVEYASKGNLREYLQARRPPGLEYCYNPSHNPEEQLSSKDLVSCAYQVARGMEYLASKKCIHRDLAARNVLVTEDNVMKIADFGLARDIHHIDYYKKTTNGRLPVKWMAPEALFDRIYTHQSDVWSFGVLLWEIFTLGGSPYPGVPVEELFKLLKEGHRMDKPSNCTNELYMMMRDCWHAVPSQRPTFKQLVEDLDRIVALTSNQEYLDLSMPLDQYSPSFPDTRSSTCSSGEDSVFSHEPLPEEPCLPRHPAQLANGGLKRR

At SRSF protein kinase 1 [1], `CC(C)(O)[C@H](F)CN1Cc2cc(NC(=O)c3cnn4cccnc34)c(N3CCOCC3)cc2C1=O` registered a dTM of 1.1 K.

As to `COc1cc(Nc2nc(C)cc(-c3cnn4nc(OC)ccc34)n2)cc(C(F)(F)F)c1`, the % of control in [2] worked out at 100%.

For `O=C(NOC[C@H](O)CO)c1ccc(F)c(F)c1Nc1ccc(I)cc1F`, the % of control in experiment [3] stood at 100%.

As for `CNC(=O)Nc1ccc(-c2nc(N3CC4CCC(C3)O4)c3cnn(C4CCC5(CC4)OCCO5)c3n2)cc1`, the % of control is 100% at SRSF protein kinase 1 [4] and 94% in experiment [5].

As to `CC[C@@H]1[C@H](F)C(=O)N[C@@H]1COc1nccc2cc(C(N)=O)c(OC)cc12` [ZIMLOVISERTIB], the % of inhibition is -12.1% in [6] (at 0.01 µM); -3.2% in experiment [6] (at 0.04 µM); 0% in [6] (at 0.2 µM); -6.5% in [6] (at 1 µM); -21.9% in experiment [6] (at 5 µM); -1.5% in [7] (at 0.01 µM). Moreover, the % of inhibition in [7] (at 0.04 µM) is -7.2%; in [7] (at 0.2 µM) it was -0.3%; in [7] (at 1 µM), -5.2%; in experiment [7] (at 5 µM), -11.5%.

As to `CCC(=O)N1CC[C@H](Nc2ncnc3c2CN(c2cnc(OC)c(C(F)(F)F)c2)CC3)C1` [LENIOLISIB], the concentration for half-maximal inhibition (IC50) in experiment [8] was greater than 10 µM.

As to `N#Cc1cccc(-c2c[nH]c3ncnc(N4CCOCC4)c23)c1`, the % of inhibition in experiment [9] worked out at 7%.
